Data as given in PubChem BioAssay (NCI).
Values joined by “and” are separate entries in the source; they are usually repeats but may differ in a detail not shown here. Equal entries are not always repeated.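 Results reflect a 48-hour exposure of cells in 96-well plates to compound at five concentrations. Abbreviation: GI50, concentration required for 50% inhibition of growth. TGI marks complete inhibition of growth.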

Tests used:
Assay in all cases: DTP human tumour cell line panel, 48 h
[1] = system: CCRF-CEM leukemia
[2] = system: OVCAR-8 ovarian
[3] = system: HS 578T breast
[4] = system: MDA-N
[5] = system: OVCAR-3 ovarian
[6] = system: NCI/ADR-RES ovarian
[7] = system: UACC-257 melanoma
[8] = system: SK-MEL-5 melanoma
[9] = system: T-47D breast
[10] = system: SK-MEL-2 melanoma

SMILES | TGI [1] | TGI [2] | TGI [3] | TGI [4] | TGI [5] | TGI [6] | TGI [7] | TGI [8] | TGI [9] | TGI [10] | GI50 [1] | GI50 [2] | GI50 [3] | GI50 [4] | GI50 [5] | GI50 [7] | GI50 [9]
c1ccc(C/C(=N\Nc2nc3ccccc3o2)c2ccccn2)cc1 | 0.0473 µM | 1.42 µM | 29 µM | 5.13 µM | 0.0301 µM | 0.0824 µM | 3.85 µM | 0.368 µM | > 33.5 µM | 20.7 µM |  |  |  |  |  |  | 
COc1cc(C2S/C(=C/c3ccccc3)C(=O)N2c2ccc(Cl)cc2)cc(OC)c1OC (configuration not stated) | > 100 µM | > 100 µM | > 100 µM | 34.3 µM | > 100 µM | > 100 µM | > 100 µM | > 100 µM | > 25.6 µM | > 30.2 µM |  |  |  |  |  |  | 
CCOC(=O)Cc1nc2c(=O)[nH]cnc2n1C1OC(COC(C)=O)C(OC(C)=O)C1OC(C)=O (configuration not stated) | > 100 µM | > 100 µM | > 100 µM | > 100 µM | > 100 µM | > 100 µM | > 100 µM | > 100 µM | > 100 µM | > 100 µM |  |  |  |  |  |  | 
CCCCCCCC(CC(=O)O)OC(=O)CC(CCCCCCC)OC1OC(C)C(O)C(O)C1OC1OC(C)C(O)C(O)C1O (configuration not stated) | > 100 µM | > 100 µM | > 100 µM | > 100 µM | > 100 µM | > 100 µM | > 100 µM | > 100 µM | > 100 µM | > 100 µM |  |  |  |  |  |  | 
COC(=O)c1cc2c3c(c(C(C)=O)c(OC)c2[nH]1)NCC3 | > 50 µM | > 50 µM | > 50 µM | > 50 µM | > 50 µM | > 50 µM | > 50 µM | > 50 µM | > 50 µM | > 50 µM |  |  |  |  |  |  | 
O=C(CCCN1CCc2[nH]c3cc(F)ccc3c2C1)c1ccc(F)cc1 | 30.9 µM | 28.4 µM | 30 µM | 29.2 µM | 28.1 µM | 36.1 µM | 28.8 µM | 30.8 µM | 36.1 µM | 32.4 µM |  |  |  |  |  |  | 
CNC(=O)OCC1=C(COC(=O)NC)CN(c2ccccc2)C1 | > 100 µM | > 100 µM | > 100 µM | > 100 µM | > 100 µM | > 100 µM | > 100 µM | > 100 µM | > 100 µM | > 100 µM |  |  |  |  |  |  | 
C=C1C(=O)O[C@H]2C(=O)[C@H](C)CCC[C@@](C)(O)/C=C\C[C@@]3(C)O[C@@H]3C[C@@H]12 | 12.3 µM | 48 µM | 90.2 µM | 34.8 µM | 24.3 µM | > 100 µM | 31 µM | 29 µM | 42.3 µM | 41.5 µM |  |  |  |  |  |  | 
Cn1c(=O)c2[nH]c(N/N=C3/SCC(=O)N3Cc3ccccc3)nc2n(C)c1=O | 62.9 µM | > 100 µM | > 100 µM | 36.5 µM | > 100 µM | > 100 µM | > 100 µM | > 100 µM | > 100 µM | > 100 µM |  |  |  |  |  |  | 
CCOP(=O)(OCC)C(F)(F)CC1CCCCC1 | > 10 µM | > 10 µM | > 10 µM | > 10 µM | > 10 µM | > 10 µM | > 10 µM | > 10 µM | > 10 µM | > 10 µM |  |  |  |  |  |  | 
O=C(Cc1nc2ccc([N+](=O)[O-])cc2[nH]c1=O)C(=O)Nc1cc(Cl)c(Cl)cc1Cl | > 100 µM | > 100 µM | > 100 µM | > 100 µM | > 100 µM | > 100 µM | > 100 µM | > 100 µM | > 100 µM | > 100 µM |  |  |  |  |  |  | 
COc1cc(/C=C2\C[C@H]3[C@@H]4CC=C5C[C@@H](N6CCCC6)CC[C@]5(C)[C@H]4CC[C@]3(C)[C@H]2OC(C)=O)cc(OC)c1OC | > 100 µM | 28.7 µM | 35.1 µM | 23.3 µM | 29.8 µM | 30.9 µM | 33.8 µM | 28.4 µM | 44.8 µM | 31.6 µM |  |  |  |  |  |  | 
CN1C/C(=C\c2ccccc2[N+](=O)[O-])C(=O)/C(=C/c2ccccc2[N+](=O)[O-])C1 | 0.542 µM and 0.568 µM | 0.328 µM and 1.85 µM | 24 µM and 3.42 µM | 2.91 µM and 1.16 µM | 1.64 µM and 0.717 µM | > 28.1 µM and 29.4 µM | 0.481 µM and 3.5 µM | 2.31 µM and 2.91 µM | 4.47 µM and 2.08 µM | 8.87 µM and 4.36 µM | 0.226 µM and 0.0611 µM | 0.175 µM and 0.517 µM | 1.97 µM and 0.759 µM | 0.783 µM and 0.298 µM | 0.503 µM and 0.179 µM | 0.265 µM and 1.46 µM | 1.01 µM and 0.354 µM
CN(Cc1nc2c(N)nc(N)nc2nc1N)c1ccc(C(=O)NC(CCC(=O)O)C(=O)O)cc1 (configuration not stated) | > 100 µM | > 100 µM | > 100 µM | > 100 µM | > 100 µM | > 100 µM | > 100 µM | > 100 µM | > 100 µM | > 100 µM |  |  |  |  |  |  | 
COc1ccc(C=O)cc1Oc1ccc(C[C@H]2c3c(cc(OC)c4c3Oc3cc5c(cc3O4)CCN(C)C5=O)CCN2C)cc1 | 22.1 µM | 15.2 µM | 21.7 µM | 18.2 µM | 15.4 µM | 16.2 µM | 17.6 µM | 19.4 µM | > 50 µM | 22.9 µM |  |  |  |  |  |  | 
OCc1ccccc1OC1OC(CO)C(O)C(O)C1O (configuration not stated) | > 100 µM | > 100 µM | > 100 µM | > 100 µM | > 100 µM | > 100 µM | > 100 µM | > 100 µM | > 100 µM | > 100 µM |  |  |  |  |  |  | 
